Literature values in patent US9861587B2, “Composition and method for treating ketosis in cows” (RP FEED COMPONENTS, LLC, priority 2011, dated 2018).

Legend:
[1] = system: ketotic cows; details: two ketotic cows; daily injections or oral administration of 12.5 g
[2] = system: cases of clinical ketosis; details: six cases; orally 40 g once daily for seven days; 21-day examination period
[3] = system: bovine ketosis; details: oral administration

For `CSCCC(N)C(=O)O` (racemic) [DL-methionine], the treatment of ketosis [1] is listed as “unsuccessful treatment”.
For “DL-α-hydroxy-γ-methylmercaptobutyrate calcium [methionine hydroxy analog (MHA)]”, the serum ketone levels [2] is listed as “fell slowly over a 21-day examination period, but never returned to normal levels” and the “symptoms of bovine ketosis” value [3] is listed as “aided in alleviating symptoms of bovine ketosis”.
